The text below walks through data of patent US20090298895A1, “USE OF THIOPROLINE IN BODY WEIGHT REDUCTION TREATMENTS” (Universidad De Cadiz, priority 2006, published 2009).

What all share (assay type): in vivo
Test [1] concerns CD-1 Swiss/UCàdiz mice. The experiment in a line: Average daily food intake ad libitum. The following applies: diet with 2.0 g l-thioproline/kg of food. As to the method:
To study the effect of thioproline, particularly of l-thioproline, on feeding behavior, CD-1 Swiss/UCàdiz mice bred in the Animal Experimentation department of the Universidad de Càdiz were used. The mice were stabled in groups of 5 animals at 22±2° C. with 12 h/12 h of light/dark cycles and with free access, ad libitum, to food and water. The control group received standard laboratory animal food (A04 diet, Panlab LS, Barcelona, Spain), whereas the l-thioproline-supplemented mice received the same food as the mice in the control group, but supplemented with 2.0 g of l-thioproline (Sigma Aldrich)/kg of food from 28 weeks of age and until the end of their lives. The food was weighed daily. The mice were weighed weekly, and it was periodically controlled that the animals were pathogen-free.

In test [2] the test system is CD-1 Swiss/UCàdiz mice. The experiment in a line: Neurological tests (tightrope test and T maze test). The following applies: once a week, FIG. 2A, 2B. The text has this:
The animals of Example 1 were subjected to two tests once a week to evaluate neurological capacities, specifically to the tightrope test and the T maze test. The assayed animals were the animals mentioned in Example 1, i.e. the group of control mice and the group of mice with an l-thioproline-supplemented diet according to the treatment described in the Example 1. This test allows evaluating neuromuscular coordination. The mice were suspended in the center of a 60 cm wide tightrope and the time it took them to reach one of the columns located at the end of the rope was measured. The test was considered positive when the animal reached one of the ends in less than 60 seconds. This test measures spontaneous cognitive neurological activity. The mice were placed in a T maze with 50 cm arms, and the test was considered successful when the mice reached the intersection in less than 60 seconds.

Test [3] has as its system CD-1 Swiss/UCàdiz mice. Description: Body weight of mice on l-thioproline-supplemented diet. Also on record: Variation: percentage reduction in weight between supplemented mice and control mice: concentration or dose not given beside the values. To be noted: for Average weight: average ± SEM. The text has this: To study the effect of thioproline, particularly of l-thioproline, on feeding behavior, CD-1 Swiss/UCàdiz mice bred in the Animal Experimentation department of the Universidad de Càdiz were used.
(§1) The mice strain used in this study, CD-1 Swiss/UCàdiz, is a type of mice with accelerated senescence similar to the AKR, SAM, NZB/Lac, and SJL/J mice having a mean life span of 36-57 weeks and a maximum life expectancy of 52-83 weeks. These mice have been used in the Universidad de Càdiz in several survival studies (Navarro A, Gomez C, Sanchez-Pino M J, Gonzalez H. Bandez M J, Boveris A D and Boveris A. Vitamin E at high doses improves survival, neurological performance, and brain mitochondrial function in aging male mice. Am J Physiol Regul Integr Comp Physiol 289: R1392-R1399, 2005; Navarro A, Gomez C, Lopez-Cepero J M and Boveris A. Beneficial effects of moderate exercise on mice aging: survival, behavior, oxidative stress, and mitochondrial electron transfer. Am J Physiol Regul Integr Comp Physiol 286: R505-R511, 2004; Navarro A, Sanchez Del Pino M J, Gomez C, Peralta J L and Boveris A. Behavioral dysfunction, brain oxidative stress, and impaired mitochondrial electron transfer in aging mice. Am J Physiol Regul Integr Comp Physiol 282: R985-R992, 2002).
The mice were stabled in groups of 5 animals at 22±2° C. with 12 h/12 h of light/dark cycles and with free access, ad libitum, to food and water.
(§2) The control group received standard laboratory animal food (A04 diet, Panlab LS, Barcelona, Spain), whereas the l-thioproline-supplemented mice received the same food as the mice in the control group, but supplemented with 2.0 g of l-thioproline (Sigma Aldrich)/kg of food from 28 weeks of age and until the end of their lives.
The food was weighed daily. The mice were weighed weekly, and it was periodically controlled that the animals were pathogen-free.

Test [4] has as its system CD-1 Swiss/UCàdiz mice. The experiment in a line: Survival of thioproline-supplemented mice. To be noted: for Mean life span / Maximum life expectancy: supplemented mice n=70; for Mean life span: control 62±4 weeks; for Maximum life expectancy: control 118±4 weeks.
Source text: as §1, §2
The date on which each mouse died (Example 1) was controlled to be able to obtain the survival curves.

As for `O=C(O)C1CSCN1` (stereo not drawn) [l-thioproline, thiazolidine-4-carboxylic acid], the “Spontaneous reduction of the intake versus control mice” value in the test on CD-1 Swiss/UCàdiz mice [1] is recorded as “approximately 20%”. Moreover, in the test on CD-1 Swiss/UCàdiz mice [1] (control 6.3±0.03 g/day), the “Average daily intake ad libitum” value stood at 5.1 ± 0.03 g/day. In the test on CD-1 Swiss/UCàdiz mice [2], the “Improvement in the neurological tests compared to control group” value is recorded as 17-39%. Further, the “Weight increase versus control group” value in the test with CD-1 Swiss/UCàdiz mice [3] (after 12 weeks of l-thioproline-supplemented diet, FIG. 1) is listed as “smaller weight increase than the increase observed in the control group”. Also, the “Variation: percentage reduction in weight between supplemented mice and control mice” value in the test with CD-1 Swiss/UCàdiz mice [3] (age 28 weeks) amounted to 2.06%; with CD-1 Swiss/UCàdiz mice [3] (age 52 weeks), 4.45%; in the test on CD-1 Swiss/UCàdiz mice [3] (age 78 weeks), 11.65%; in the test on CD-1 Swiss/UCàdiz mice [3] (age 100 weeks), 10.18%. Further, the Average weight in the test on CD-1 Swiss/UCàdiz mice [3] (age 28 weeks (start of supplementation), diet with 2.0 g l-thioproline/kg of food) turned out to be 42.7 ± 0.4 g; in the test with CD-1 Swiss/UCàdiz mice [3] (age 52 weeks, diet with 2.0 g l-thioproline/kg of food from 28 weeks of age), 47.2 ± 0.4 g; with CD-1 Swiss/UCàdiz mice [3] (age 78 weeks, diet with 2.0 g l-thioproline/kg of food from 28 weeks of age), 48.5 ± 0.5 g; in the test with CD-1 Swiss/UCàdiz mice [3] (age 100 weeks, diet with 2.0 g l-thioproline/kg of food from 28 weeks of age) it was 49.4 ± 0.5 g. Besides, in the test with CD-1 Swiss/UCàdiz mice [4] (from 62 weeks to 80 weeks), the “Prolongation of mean life span versus control” value is given as “approximately 29%”. Besides, the “Prolongation of maximum life versus control” value in the test on CD-1 Swiss/UCàdiz mice [4] (from 118 weeks to 145 weeks) is listed as “approximately 23%”. Further, the Mean life span in the test with CD-1 Swiss/UCàdiz mice [4] amounted to 80 weeks; with CD-1 Swiss/UCàdiz mice [4] (listed as thioproline) it was 80±3 weeks. The Maximum life expectancy with CD-1 Swiss/UCàdiz mice [4] came to 145 weeks; in the test with CD-1 Swiss/UCàdiz mice [4] (listed as thioproline), 145±3 weeks.
